Experimental data: patent US8952042B2, “FXR (NR1H4) binding and activity modulating compounds” (Phenex Pharmaceuticals AG, priority 2009, dated 2015)

Legend:
[1] = molecular target: T1, human FXR alpha ligand binding domain (Homo sapiens, UniProt Q96RI1); assay: FRET activity assay (ligand mediated cofactor peptide interaction, LANCE); assay type: biochemical; details: potency range
T1 construct: made in house; host or cells: E. coli BL21(DE3), vector pDEST15
T1 sequence (Q96RI1 187-472 isoform Q96RI1-2): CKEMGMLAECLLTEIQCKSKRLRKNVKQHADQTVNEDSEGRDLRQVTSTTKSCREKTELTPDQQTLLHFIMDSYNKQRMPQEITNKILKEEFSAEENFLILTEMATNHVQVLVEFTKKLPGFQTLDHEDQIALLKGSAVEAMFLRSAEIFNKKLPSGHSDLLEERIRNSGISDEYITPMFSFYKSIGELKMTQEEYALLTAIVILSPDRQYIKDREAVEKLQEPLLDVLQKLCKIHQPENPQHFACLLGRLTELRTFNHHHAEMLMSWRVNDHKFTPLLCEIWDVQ
Method: Determination of a ligand mediated cofactor peptide interaction to quantify ligand binding to the nuclear receptor FXR was performed as follows: Preparation of human FXR alpha ligand binding domain: The human FXRalpha LBD was expressed in E. coli strain BL21(DE3) as an N-terminally GST tagged fusion protein. The DNA encoding the FXR ligand binding domain was cloned into vector pDEST15 (Invitrogen). Expression was under control of an IPTG inducible T7 promoter. The amino acid boundaries of the ligand binding domain were amino acids 187-472 of Database entry NM_005123 (RefSeq). Expression and purification of the FXR-LBD: An overnight preculture of a transformed E. coli strain was diluted 1:20 in LB-Ampicillin medium and grown at 30° C. to an optical density of OD600=0.4-0.6. Gene expression was then induced by addition of 0.5 mM IPTG. Cells were incubated an additional 6 h at 30° C., 180 rpm. Cells were collected by centrifugation (7000×g, 7 min, room temperature). Per liter of original cell culture, cells were resuspended in 10 mL lysis buffer (50 mM Glucose, 50 mM Tris pH 7.9, 1 mM EDTA and 4 mg/mL lysozyme) and left on ice for 30 min. Cells were then subjected to sonication and cell debris removed via centrifugation (22000×g, 30 min, 4° C.). Per 10 mL of supernatant 0.5 mL prewashed Glutathione 4B sepharose slurry (Qiagen) was added and the suspension kept slowly rotating for 1 h at 4° C. Glutathione 4B sepharose beads were pelleted by centrifugation (2000×g, 15 sec, 4° C.) and washed twice in wash buffer (25 mM Tris, 50 mM KCl, 4 mM MgCl2 and 1M NaCl). The pellet was resuspended in 3 mL elution buffer per liter of original culture (elution buffer: 20 mM Tris, 60 mM KCl, 5 mM MgCl2 and 80 mM glutathione added immediately prior to use as powder). The suspension was left rotating for 15 min at 4° C., the beads pelleted and eluted again with half the volume of elution buffer than the first time. The eluates were pooled and dialysed overnight in 20 mM Hepes buffer (pH 7.5) containing 60 mM KCl, 5 mM MgCl2 as well as 1 mM dithiothreitol and 10% (v/v) glycerol. The protein was analysed by SDS-Page.
The method measures the ability of putative ligands to modulate the interaction between the purified bacterial expressed FXR ligand binding domain (LBD) and a synthetic biotinylated peptide based on residues 676-700 of SRC-1 (LCD2, 676-700). […] The ligand binding domain (LBD) of FXR was expressed as fusion protein with GST in BL-21 cells using the vector pDEST15. Cells were lysed by sonication, and the fusion proteins purified over glutathione sepharose (Pharmacia) according to the manufacturers instructions. For screening of compounds for their influence on the FXR-peptide interaction, the Perkin Elmer LANCE technology was applied. This method relies on the binding dependent energy transfer from a donor to an acceptor fluorophor attached to the binding partner of interest. For ease of handling and reduction of background from compound fluorescence LANCE technology makes use of generic fluorophore labels and time resolved detection Assays were done in a final volume of 25 μL in a 384 well plate, in a Tris-based buffer (20 mM Tris-HCl pH 7.5; 60 mM KCl, 5 mM MgCl2; 35 ng/μL BSA), containing 20-60 ng/well recombinantly expressed FXR-LBD fused to GST, 200-600 nM N-terminally biotinylated peptide, representing SRC1 aminoacids 676-700, 200 ng/well Streptavidin-xIAPC conjugate (Prozyme) and 6-10 ng/well Eu W1024—antiGST (Perkin Elmer). DMSO content of the samples was kept at 1%. After generation of the assay mix and diluting the potentially FXR modulating ligands, the assay was equilibrated for one hour in the dark at room temperature in FIA-plates black 384 well (Greiner). The LANCE signal was detected by a Perkin Elmer VICTOR2V™ Multilabel Counter. The results were visualized by plotting the ratio between the emitted light at 665 and 615 nm.

[2] = molecular target: T2, FXR ligand binding domain (Homo sapiens, UniProt Q96RI1); assay: Mammalian One Hybrid (M1H) Gal4 reporter assay in HEK293 cells; assay type: cell-based; details: potency range
T2 construct: expressed in transfected cells; host or cells: HEK293 cells (DSMZ), transient transfection of pCMV-BD-FXR-LBD
T2 sequence (Q96RI1 187-472 isoform Q96RI1-2): T1 sequence (Q96RI1 187-472 isoform Q96RI1-2)
Method: Determination of a ligand mediated Gal4 promoter driven transactivation to quantify ligand binding mediated activation of FXR was performed as follows: The cDNA part encoding the FXR ligand binding domain was cloned into vector pCMV-BD (Stratagene) as a fusion to the yeast GAL4 DNA binding domain under the control of the CMV promoter. The amino acid boundaries of the ligand binding domain were amino acids 187-472 of Database entry NM_005123 (RefSeq). The plasmid pFR-Luc (Stratagene) was used as the reporter plasmid, containing a synthetic promoter with five tandem repeats of the yeast GAL4 binding sites, driving the expression of the Photinus pyralis (American firefly) luciferase gene as the reporter gene. In order to improve experimental accuracy the plasmid pRL-CMV (Promega) was cotransfected. pRL-CMV contains the constitutive CMV promoter, controlling the expression of the Renilla reniformis luciferase. All Gal4 reporter gene assays were done in HEK293 cells (obtained from DSMZ, Braunschweig, Germany) grown in MEM with L-Glutamine and Earle's BSS supplemented with 10% fetal bovine serum, 0.1 mM nonessential amino acids, 1 mM sodium pyruvate, and 100 units Penicillin/[…] per mL at 37° C. in 5% CO2. Medium and supplements were obtained from Invitrogen. For the assay, […] were plated per well in 96 well plates in 100 μL per well MEM without Phenol Red and L-Glutamine and with Earle's BSS supplemented with 10% charcoal/dextran treated FBS (HyClone, South Logan, Utah), 0.1 mM nonessential amino acids, 2 mM glutamine, 1 mM sodium pyruvate, and 100 units Penicillin/[…] per mL, incubated at 37° C. in 5% CO2. The following day the cells were >90% confluence. Medium was removed and cells were transiently transfected using 20 μL per well of a OptiMEM—polyethylene-imine-based transfection-reagent (OptiMEM, Invitrogen; Polyethyleneimine, Aldrich Cat No. 40, 827-7) including the three plasmids described above. MEM with the same composition as used for plating cells was added 2-4 h after addition of transfection mixture. Then compound stocks, prediluted in MEM were added (final vehicle concentration not exceeding 0.1%). Cells were incubated for additional 16 h before firefly and renilla luciferase activities were measured sequentially in the same cell extract using a Dual-Light-Luciferase-Assay system (Dyer et al., Anal. Biochem. 2000, 282, 158-161). All experiments were done in triplicates.

[3] = UV stability, irradiation at 366 nm on a DMSO thin film, LCMS; assay type: physicochemical; details: 366 nm emission, 250 μM in DMSO thin film, FIG. 3m
Method: A different, more rapid experimental setup was used to investigate a broader set of compounds in comparison to GW4064. The substances were dissolved in reagent grade DMSO (99.5%, Karl Roth) at a concentration of 250 μM. DMSO solution was spread over a silica glass slide to a depth of approximately 2 mm and irradiated using a UV lamp set to 366 nm emission (Benda Instruments, Wiesloch Germany) using an 8 W tube set approximately 2.5 cm from the target materials. The solution was sampled prior to irradiation (T=0 min) and at various intervals thereafter. Stocks and samples were maintained in foil wrapped tubes out of direct light. Samples were injected (2 μL) directly onto a LCMS System for analysis without any further preparation.

Row | SMILES | EC50 [1] [nM] | EC50 [2] [nM] | photostability compared to GW4064 [3]
1 | CS(=O)(=O)NC(=O)c1ccc(C2CC2c2ccc(OCc3c(-c4c(Cl)cccc4Cl)noc3C3CC3)cc2Cl)cc1 (centres unmarked) [Example 14, 4-(2-(2-chloro-4-((5-cyclopropyl-3-(2,6-dichlorophenyl)isoxazol-4-yl)methoxy)phenyl)cyclopropyl)-N-(methylsulfonyl)benzamide] | > 100 | 10 to 100 | higher photostability
2 | Clc1cc(OCc2c(-c3c(Cl)cccc3Cl)noc2C2CC2)ccc1C1CC1c1ccc(-c2nnn[nH]2)cc1 (centres unmarked) [Example 16, 4-((4-(2-(4-(1H-tetrazol-5-yl)phenyl)cyclopropyl)-3-chlorophenoxy)methyl)-5-cyclopropyl-3-(2,6-dichlorophenyl)isoxazole] | > 100 | 10 to 100 | higher photostability
3 | O=C(O)c1ccc(C2CC2c2ccc(OCc3c(-c4ccccc4OC(F)(F)F)noc3C3CC3)cc2Cl)cc1 (centres unmarked) [Example 24] | > 100 | > 100 | –
4 | O=C(O)CNC(=O)c1ccc(C2CC2c2ccc(OCc3c(-c4c(Cl)cccc4Cl)noc3C3CC3)cc2Cl)cc1 (centres unmarked) [Example 28, 2-(4-(2-(2-chloro-4-((5-cyclopropyl-3-(2,6-dichlorophenyl)isoxazol-4-yl)methoxy)phenyl)cyclopropyl)benzamido)acetic acid] | > 100 | > 100 | –

The remaining lines, values ahead:

Row | EC50 [1] [nM] | EC50 [2] [nM] | photostability compared to GW4064 [3] | SMILES
5 | 10 to 100 | 10 to 100 | higher photostability | O=C(O)c1ccc(C2CC2c2ccc(OCc3c(-c4c(Cl)cccc4Cl)noc3C3CC3)cc2Cl)cc1 (single isomer, unassigned; (-)) [Example 12c, (−)-4-(2-(2-chloro-4-((5-cyclopropyl-3-(2,6-dichlorophenyl)isoxazol-4-yl)methoxy)phenyl)cyclopropyl)benzoic acid]
6 | < 10 | < 10 | higher photostability | CC(C)n1nc(C(=O)O)cc1C1CC1c1ccc(OCc2c(-c3c(Cl)cccc3Cl)noc2C2CC2)cc1Cl (centres unmarked) [Example 20, 5-(2-(2-chloro-4-((5-cyclopropyl-3-(2,6-dichlorophenyl)isoxazol-4-yl)methoxy)phenyl)cyclopropyl)-1-isopropyl-1H-pyrazole-3-carboxylic acid]
7 | < 10 | < 10 | – | CC(C)n1nc(C(=O)O)c2ccc(C3CC3c3ccc(OCc4c(-c5c(Cl)cccc5Cl)noc4C4CC4)cc3Cl)cc21 (centres unmarked) [Example 21, 6-(2-(2-chloro-4-((5-cyclopropyl-3-(2,6-dichlorophenyl)isoxazol-4-yl)methoxy)phenyl)cyclopropyl)-1-isopropyl-1H-indazole-3-carboxylic acid]
8 | 10 to 100 | < 10 | – | Cc1cc(C2CC2c2ccc(OCc3c(-c4c(Cl)cccc4Cl)noc3C3CC3)cc2Cl)cc(C)c1C(=O)O (centres unmarked) [Example 23, 4-(2-(2-chloro-4-((5-cyclopropyl-3-(2,6-dichlorophenyl)isoxazol-4-yl)methoxy)phenyl)cyclopropyl)-2,6-dimethylbenzoic acid]
